Here are results for two molecules from patent publication US7964643B2, “Aryl alkyl sulfonamides as therapeutic agents for the treatment of bone conditions” (The University Court of the University of Aberdeen, priority 2004, dated 2011).

Usually IC50 stands for the concentration that gives 50% inhibition.

Assay type in all cases: cell-based
Assay [1] concerns J774 macrophage cell line. The experiment in a line: Alamar Blue macrophage J774 viability assay. The note with it: Mus musculus, J774, 72 h. As for the experimental part: Initial screening of candidate compounds was performed using viability assays, on cultures of the macrophage cell line J774, which have been used before as a model system for osteoclast survival (see, e.g., Luckman et al., 1998). The assays are based on the survival of the J774 macrophage cell line; macrophages are closely related to osteoclasts, and contain similar high levels of esterase activity.
J774 cells were plated at 10^4 cells per well in 150 μL αMEM (α Modified Eagle Medium) in 96-well plates and grown overnight. The next day, compounds were added to the cultures, and culture was continued for another 72 hours. At the end of the culture period cell survival was determined using an Alamar Blue assay as previously described (see, e.g., Nociari et al., 1998).
Alamar Blue is an oxidation-reduction sensitive indicator. The dye itself is in the oxidised state, which is blue and non-fluorescent. The dye can accept electrons from reducing species, such as NADPH and FADH, to form a reduced dye species, which is red and fluorescent. Thus the transformation from oxidised form to reduced form can be measured by fluorimetric or colourimetric means. For fluorescence measurements, 530-560 nm excitation and 590 nm emission wavelengths are typically used. For colourimetric measurements, absorbance is measured at 570 nm (reduced form) and 600 nm (oxidised form) and a simple calculation performed to determine the relative quantities of the two species.
A high ratio of the reducing species, NADPH and FADH, to the corresponding oxidised species, NADP and FAD, is an indicator that cells are proliferating and viable. A low ratio indicates cells that are quiescent or non-viable.
Briefly, Alamar Blue (Biosource International) was added undiluted to the each well (1:10 v/v, 15 μL). The plate was incubated at 37° C. for 3-4 hours and the fluorescence was measured at 570 nm, with a 25 nm bandwidth. A high reading indicated cells with normal viability, and a low reading indicates cells that have been damaged and are no longer proliferating normally. The controls gave a high fluorescence reading, indicating a high number of live, healthy cells. A potent test compound gave a low fluorescence reading. The average results for each test compound (n=5) were expressed as a percent (%) of the average control value.
Addition of Compounds. All of the compounds studied were made up as 100 mM solutions in DMSO. These stock solutions were then diluted 100 or 1000× in culture medium (αMEM). From these 1 mM or 100 μM solutions, convenient quantities (3-15 μL) were added directly to the wells so as to give the desired final compound concentration.

Another assay has as its system osteoblasts. The experiment in a line: Alamar Blue mouse osteoblast assay. Conditions: osteoblast survival, after 72 hours exposure, FIG. 1, read-out: IC50 against osteoblasts (FIG. 1). As for the experimental part:
Osteoblasts were isolated as described above and plated at 10^4 cells/well in 96-well plates in 100 μL of […]MEM supplemented with 10% FCS and antibiotics. Test compounds were added after 24 hours and left for 72 hours. Cell viability was assessed using the Alamar Blue assay as described for J774 macrophages. Alamar Blue (Biosource International) was added undiluted to each well (1:10 v/v, 10 μL). The plate was incubated at 37° C. for 3 to 4 hours and the fluorescence was measured at 570 nm, with a 25 nm bandwidth.
Osteoblast Isolation. Briefly, osteoblasts were isolated from the calvarial bones of 2-day-old mice by sequential collagenase digestion (type I collagenase, Sigma) and cultured in αMEM supplemented with 10% FCS (foetal calf serum) and penicillin and streptomycin at 37° C. in 5% CO2.
More specifically, osteoblasts were obtained from a collagenase digestion of the calvaria (skull bones) of 2-3 day old neo-natal C57/bl6 mice. At this stage in their development these are soft and easily removed. The calvaria from 5-6 mice were carefully dissected and washed in HBSS (Hank's balanced saline solution). The calvaria were placed in a 15 mL tube and shaken at 37° C. in 4 mL collagenase (10 mg/ml) for 10 minutes. This removes the excess unwanted tissue. The liquid was disposed of and a further 4 mL collagenase (10 mg/ml) added to the tube. […]
A general note: Alamar Blue is a resazurin reagent that responds to reducing activity.

In a further assay the test system is osteoclast precursors. The experiment in a line: Murine co-culture system, osteoclast formation (osteoclast number by TRAcP staining). The note with it: Mus musculus, after 72 hours exposure, FIG. 2, read-out: IC50 against osteoclast precursors (FIG. 2). On the procedure: The first model system, the murine co-culture system, studies the formation of osteoclasts from precursors present in the bone marrow. The number of osteoclasts and the amount of dentine resorption was measured.
Osteoclast formation and activity was studied using an adaptation (see, e.g., van't H of & Ralston, 1997) of the osteoblast-bone marrow co-culture assay originally described by Takahashi et al., 1988.
Co-Culture Methods. Co-culture (see, e.g., Van't H of et al., 1997) is a method to study the formation of osteoclasts from their precursors. In this assay, osteoblasts were obtained from the calvaria of 2-3 day old neonatal mice. […] At the end of the culture osteoclasts were identified by TRAcP staining and the resorption activity was measured in the same manner as for rabbit osteoclasts.
Osteoblast Plating. […] The cells were counted and then seeded in a 96 well plated containing dentine slices, at 8×10^3 cells per well in 100 μl medium containing 1000× dilution of stock 1,25-dihydroxyvitamin D3 (final conc. 10 nM/well) to stimulate the expression of RANKL and cultured overnight. […]
More specifically, the femurs and tibia were dissected from 2-3 adult C57/bl6 mice (3-6 months old) and the surrounding tissue was removed. […] The bone marrow cells were counted and then added to the 96 well plate containing the osteoblasts at 2×10^5 cells/well in 50 μL medium. […]

Setting [2] is: 72 hours culture with compound, Alamar Blue, read-out: IC50 (J774).

Like-named read-outs stand apart in the source and are kept apart here. Where only a bound is given, the exact number is not on record here.

Consider `O=S(=O)(NCCCCO)c1ccc(-c2ccccc2)cc1` [ABD-155, Biphenyl-4-sulfonic acid-(4-hydroxybutyl)-amide], for which the IC50 in assay [1] (setting [2]) is 18 ± 3 µM; in assay [1] (after 72 hours exposure, FIG. 1, read-out: IC50 against J774 macrophages (FIG. 1)), below 20 µM; with osteoblasts it was above 100 µM.

For the molecule `Cc1cc(S(=O)(=O)NCCCCO)ccc1-c1ccc(F)cc1F` [ABD-295, 2′,4′-Difluoro-2-methylbiphenyl-4-sulfonic acid-(4-hydroxybutyl)-amide], the IC50 in assay [1] (setting [2]) was 0.8 ± 0.1 µM; in the assay on osteoclast precursors it was 0.2 µM.
